Protocol: The solution of propylene glycol monomethyl ether acetate (PGMEA), propylene glycol monomethyl ether (PGME), or ethyl lactate (EL) with each compound described above was prepared, while changing the concentration. After the preparation, each solution was stirred, and then the concentration in which each acid generator was completely dissolved was measured.

Compound	Solubility in EL [% by weight]	Solubility in PGME [% by weight]	Solubility in PGMEA [% by weight]
CCC(C)(C)c1ccc(-[s+]2c3ccccc3c3ccccc32)cc1 [Compound (b1-24)]	>20	>20	15
CC(C)(C)c1ccc(-[s+]2c3ccccc3c3ccccc32)cc1 [Compound (b1-21)]	7	>20	5
